In brackets after ≈: the same amount, converted by molar mass. Entries after “also recorded” stand apart in the source; their conditions may differ. Like-named read-outs stand apart in the source and are kept apart here.
Key:
B. Subtilis [1] = test: Minimum inhibitory concentration; assay type: cell-based; details: Bacillus subtilis; read-out: MIC50 B. Subtifis
[2] = tested on: B. subtilis (PY79 WT) peptidoglycan synthesis; test: HADA (FDAA) incorporation microscopy assay, peptidoglycan synthesis; assay type: cell-based, Bacillus subtilis; details: for inhibition of peptidoglycan synthesis (FDAA incorporation): B. subtilis, FIGS. 7B and 7C
Protocol: HADA was synthesized according to the reported protocols. Exponentially growing B. subtilis (PY79 WT) cells for the experiments were prepared as described above. […] After a 5-minute incubation at 37° C., HADA stock solution (100 mM) was directly added to the cultures to a final concentration of 0.5 mM. The cultures were then incubated in a 37° C. shaker for 30 minutes. Cell fixation was then carried out by directly adding 0.7 ml 100% ethanol to the cultures, following 1-hour incubation on ice-bath. The fixed cells were collected using centrifuge (9000 g, 3 minutes), washed with 1×PBS twice, and then resuspended into 1×PBS. The cells were imaged using Nikon Ti-E microscope. HADA signal was detected using DAPI filter set (Excitation 395/25 nm; emission 435/26 nm). HADA intensity was analyzed using ImageJ and MicrobeJ plug-in.

[3] = tested on: Enterococcus faecalis (ATCC 29212); test: Minimum inhibitory concentration, broth microdilution (CLSI); assay type: cell-based; details: for MIC50: Enterococcus faecalis, ATCC29212, read-out: MIC50 E. Faecalis
Source text: (§1) Chemicals-FtsZ inhibitor PC190723 and ampicllin were purchased from Millipore Sigma Aldrich (St. Louis, MO). Chrysophaentin A was obtained from a 2017 collection of the marine alga C. taylorii collected in the U.S. Virgin Islands (Permit VIIS-2017-SCI-0034) and isolated as described previously. All bacterial strains used for drug susceptibility testing were obtained from the American Type Culture Collection (Manassas, VA) and included Escherichia coli (ATCC 25922), Enterococcus faecalis (ATCC 29212), vancomycin-resistant E. faecalis (VRE, ATCC 51299), Staphylococcus aureus (ATCC 25913), and methicillin-resistant S. aureus (MRSA, ATCC 43300). Strains were maintained on agar slants at 4° C. and sub-cultured on fresh agar plates containing ATCC-recommended media. Strains were cultured in liquid media 16 h prior to any antimicrobial screen. BD BBL™ Mueller-Hinton II broth (Fisher Scientific, Hampton NH) was used for MIC determinations.
(§2) MICs for all compounds were determined using the CLSI guidelines on the test strains. Solutions of each compound were prepared by dissolution in DMSO (Sigma Aldrich, St. Louis MO) at a concentration of 10-20 mg mL^−1. […] Stock solutions were added to Mueller-Hinton II broth and serial two-fold dilutions were prepared in a 96-well microtiter plate (50 μL per well). Fifty microliters (50 μL) of inoculum containing 1×10^6 CFU mL^−1 for E. coli, S. aureus, or MRSA, or 2×10^6 CFU mL^−1 for E. faecalis or VRE were added to the wells. Plates were covered with a sterile membrane, placed in a plate reader, and agitated for 2 min to mix the contents of the wells. Plates were incubated at 37° C. for 16 h. Wells containing 4% DMSO or gentamycin served as negative and positive controls. […] Each assay was performed in triplicate and two independent experiments were carried out on separate days.

[4] = tested on: Bacillus subtilis (PY79 WT); test: Cell lengthening assay; assay type: cell-based; details: for cell lengthening: B. Subtilis; for cell lengthening phenotype: B. subtilis, FIG. 7A, concentration not given
Protocol: Bacillus subtilis (PY79 WT, lab stock) were inoculated from an overnight plate culture (single colony) to 3 ml LB in 15 ml culture tubes. The cultures were incubated in a 37° C. shaker until OD600 reached 0.2. The cultures were then diluted with fresh LB to OD600 0.05, followed by another round of incubation to OD600 0.2. At this point, cells have reached exponentially growing states and were used for experiments. […] The cultures were incubated at a 37° C. shaker for 40 minutes, followed by direct addition of 0.7 ml 100% ethanol (70% final ethanol concentration) and then incubation on ice-bath for 1 hour. The fixed cells were imaged using a Nikon Ti-E inverted microscope equipped with a 1.4NA Plan Apo 60X oil objective and Andor iXon EMCCD camera. Cell images were captured under phase-to-contrast channel. Cell length was analyzed using ImageJ and MicrobeJ plug-in.

[5] = tested on: FtsZ/FtsA/PBP2B localization in B. subtilis; test: Imaging of fluorescently labeled FtsZ, FtsA and PBP2B (mNeonGreen); assay type: cell-based, Bacillus subtilis; details: for localization of fluorescently labeled FtsZ (mNeonG): 10 μM (5×MIC), high-resolution microscopy; for localization of FtsZ: B. Subtilis, concentration not given; for localization of FtsZ, FtsA and PBP2B: B. subtilis, FIG. 7D
Protocol: B. subtilis strains with fluorescent protein fusion were made (FtsZ-mNeonGreen: bAB185, FtsA-mNeonGreen: bAB167, PBP2B-mNeonGreen: bAB109). Exponentially growing cells for the experiments were prepared as described above. Antibiotic stock solutions were added to 0.3 ml exponentially growing cell cultures to a final concentration of 5×MIC. The cells were incubated at 37° C. for 5 minutes and then immediately imaged using the Ti-E microscope without fixation. mNeonGreen signal was detected using FITC filter set (Excitation 470/24 nm; emission 510/40 nm). Image processing was performed in ImageJ. Images were scaled without interpolation, cropped and rotated. Linear adjustment was performed to optimize contrast and brightness of the images. All the images from the same experiment were processed in the same way in order to ensure fair comparison.

[6] = tested on: VRE, vancomycin-resistant E. faecalis (ATCC 51299); test: Minimum inhibitory concentration, broth microdilution (CLSI); assay type: cell-based, Enterococcus faecalis; details: for MIC50: Enterococcus
Source text: as §1, §2

[7] = tested on: MRSA, methicillin-resistant S. aureus (ATCC 43300); test: as above; assay type: cell-based, Staphylococcus aureus; details: for MIC50: Staphylococcus aureus
Source text: as §1, §2

S. aureus (ATCC 25913) = test: as above; assay type: cell-based, Staphylococcus aureus; details: for MIC50: Staphylococcus aureus, ATCC25913
Source text: as §1, §2

[8] = tested on: gram-positive bacteria, such as MRSA; details: against gram-positive bacteria; cited from earlier work
S. aureus FtsZ = target: T1, S. aureus FtsZ (Staphylococcus aureus, UniProt P0A031); test: Biochemical GTPase-FtsZ inhibition assay
T1 sequence (P0A031 1-390): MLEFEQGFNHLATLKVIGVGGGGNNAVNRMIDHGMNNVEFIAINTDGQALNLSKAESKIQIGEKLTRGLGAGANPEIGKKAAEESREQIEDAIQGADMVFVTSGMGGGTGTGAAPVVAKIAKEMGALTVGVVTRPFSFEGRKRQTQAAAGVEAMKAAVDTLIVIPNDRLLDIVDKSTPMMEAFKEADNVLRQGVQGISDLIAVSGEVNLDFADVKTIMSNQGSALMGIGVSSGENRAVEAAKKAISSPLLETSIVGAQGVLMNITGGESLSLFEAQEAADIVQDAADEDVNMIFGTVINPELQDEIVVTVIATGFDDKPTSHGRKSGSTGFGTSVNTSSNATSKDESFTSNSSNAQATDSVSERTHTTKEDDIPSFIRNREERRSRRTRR
Protocol: (§3) VU0848355 and VU0848354 were evaluated for growth inhibition against S. aureus and inhibition of GTPase activity against S. aureus FtsZ using a biochemical assay (FIGS. 6A-6C).

S. aureus ATCC 25293 [9] = test: Agar diffusion assay; assay type: cell-based, Staphylococcus aureus
Protocol: as §3

S. aureus ATCC 25293 [10] = test: Microbroth dilution growth inhibition; assay type: cell-based; details: Staphylococcus aureus, ATCC25293; S. aureus ATCC 25293, microbroth dilution
Protocol: as §3

B. Subtilis [11] = test: Time-lapse microscopy of FtsZ motion; assay type: cell-based, Bacillus subtilis; details: 5×MIC
Protocol: Time-lapse microscopy was employed to monitor the dynamics of FtsZ motion before and after treatment by these compounds. FtsZ movement drives the septal peptidoglycan synthesis machinery in B. subtilis. The movement is carried out by a “treadmilling process” where FtsZ monomer polymerizes at one end and disassembles at the other. FtsZ polymerization is triggered by binding to GTP while its disassembly is catalyzed by GTP hydrolysis to GDP.

Gram-positive pathogens = test: Comparison of bacterial growth inhibition across panel; assay type: cell-based; details: for potency in inhibiting bacterial growth relative to natural C-ring isomers VU0849855 and VU0848355: FIGS. 5A-5C
Protocol: as §2
The bacterial growth inhibition of synthetic 9-dechlorochrysophaentins compared favorably to chrysophaentin A when evaluated across a panel of Gram-positive pathogens (Table 1).

## Oc1cc(O)c2c(c1)C/C=C\Cc1cc(c(Cl)cc1O)Oc1c(O)cc(cc1O)C/C(Cl)=C\Cc1cc(c(Cl)cc1O)O2 [VU0849855, 9-dechlorochrysophaentin A]
B. Subtilis [1]
  MIC50: 4 µg/mL (≈ 6.21 µM)
[2]; 10 μM (5×MIC)
  inhibition of FDAA incorporation: inhibited incorporation of FDAAs
[3]
  MIC50: 2.5 µg/mL (≈ 3.88 µM)
[4]; up to 20 μM (10×MIC)
  cell lengthening: did not affect cell lengthening
[5]
  localization of fluorescently labeled FtsZ (mNeonG): complete disassociation of FtsZ
  localization of FtsZ: lead to dislocation of FtsZ
[6]
  MIC50: 5 µg/mL (≈ 7.77 µM)
[7]
  MIC50: 2.5 µg/mL (≈ 3.88 µM)
S. aureus (ATCC 25913)
  MIC50: 2.5 µg/mL (≈ 3.88 µM)

## chrysophaentin A [reference compound]
[8]
  MIC50: 1 to 4 µM
[3]
  MIC50 E. Faecalis: 2 µg/mL
[5]
  localization of FtsZ: leads to dispersion of FtsZ; also recorded: replicated the FtsZ dispersion phenotype
  localization of FtsZ, FtsA and PBP2B: led to dispersion of the septal peptidoglycan synthesis machinery
[6]
  MIC50 VRE: 2 µg/mL
[7]
  MIC50 MRSA: 2 µg/mL
S. aureus (ATCC 25913)
  MIC50 S. Aureus: 2 µg/mL

## COc1cc2cc(OC)c1Oc1cc(c(O)cc1Cl)C/C=C\Cc1cc(O)cc(O)c1Oc1cc(c(O)cc1Cl)C/C=C(/Cl)C2 [VU0848355]
[2]
  inhibition of peptidoglycan synthesis (FDAA incorporation): inhibit peptidoglycan synthesis; also recorded: inhibited both lateral and septal peptidoglycan synthesis
S. aureus FtsZ
  IC50: > 250 µM
[4]
  cell lengthening phenotype: neither VU0848355 and VU0848354 replicates the cell lengthening phenotype
[5]
  localization of FtsZ, FtsA and PBP2B: displace FtsZ/A and penicillin binding protein PBP2B; also recorded: unique dispersion of FtsZ, FtsA and PBP2B
S. aureus ATCC 25293 [9]
  growth inhibition, agar diffusion: inhibited growth of S. aureus
S. aureus ATCC 25293 [10]
  IC50: < 1 µM

## CC1(C)S[C@@H]2[C@H](NC(=O)[C@H](N)c3ccccc3)C(=O)N2[C@H]1C(=O)O [Ampicillin, ampicillin, reference compound]
[2]
  inhibition of peptidoglycan synthesis (FDAA incorporation): inhibit peptidoglycan synthesis

## NC(=O)c1c(F)ccc(OCc2nc3cc(Cl)cnc3s2)c1F [PC190723, reference compound]
[2]
  inhibition of peptidoglycan synthesis (FDAA incorporation): does not
[2]; up to 10×MIC
  inhibition of FDAA incorporation: minimal inhibition of FDAAs incorporation
[4]; 5 μg/mL (10×MIC)
  cell lengthening: Cell lengthening was observed
[4]
  cell lengthening phenotype: produces the expected cell lengthening phenotype
[4]; listed as PC1907723
  cell lengthening phenotype: leads to expected cell lengthening
[5]
  localization of FtsZ: dislocation but retention of FtsZ

## COc1cc2cc(OC)c1Oc1cc(c(O)cc1Cl)C/C=C\Cc1cc(O)cc(O)c1Oc1ccc(O)c(c1Cl)C/C=C(/Cl)C2 [VU0848354]
[2]
  inhibition of peptidoglycan synthesis (FDAA incorporation): inhibit peptidoglycan synthesis; also recorded: inhibited both lateral and septal peptidoglycan synthesis
B. Subtilis [11]
  cell elongation: did not elongate
S. aureus FtsZ; S. aureus FtsZ biochemical assay, read-out: IC50 GTPase-FtsZ inhibition
  IC50: > 250 µM
Gram-positive pathogens
  potency in inhibiting bacterial growth relative to natural C-ring isomers VU0849855 and VU0848355: approximately two-fold
[4]
  cell lengthening phenotype: neither VU0848355 and VU0848354 replicates the cell lengthening phenotype
[5]
  localization of FtsZ, FtsA and PBP2B: displace FtsZ/A and penicillin binding protein PBP2B; also recorded: unique dispersion of FtsZ, FtsA and PBP2B
S. aureus ATCC 25293 [9]
  growth inhibition, agar diffusion: inhibited growth of S. aureus
S. aureus ATCC 25293 [10]
  IC50: < 1 µM

## Oc1cc(O)c2c(c1)C/C=C\Cc1cc(c(Cl)cc1O)Oc1c(O)cc(cc1O)C/C(Cl)=C\Cc1c(O)ccc(c1Cl)O2 [VU0849838, iso-9-dechlorochrysophaentin A]
B. Subtilis [1]
  MIC50: 2 µg/mL (≈ 3.11 µM)
[2]; 10 μM (5×MIC)
  inhibition of FDAA incorporation: inhibited incorporation of FDAAs
Gram-positive pathogens
  potency in inhibiting bacterial growth relative to natural C-ring isomers VU0849855 and VU0848355: approximately two-fold
Gram-positive pathogens; S. aureus, MRSA and E. faecalis
  growth inhibition (MIC) relative to natural chrysophaentin A: approximately two-fold
[3]
  MIC50: 0.3 µg/mL (≈ 0.466 µM)
[4]; up to 20 μM (10×MIC)
  cell lengthening: did not affect cell lengthening
[5]
  localization of fluorescently labeled FtsZ (mNeonG): complete disassociation of FtsZ
  localization of FtsZ: lead to dislocation of FtsZ
[6]
  MIC50: 2.2 µg/mL (≈ 3.42 µM)
[7]
  MIC50: 1.1 µg/mL (≈ 1.71 µM)
S. aureus (ATCC 25913)
  MIC50: 1.1 µg/mL (≈ 1.71 µM)
